Test results from US20060100140A1, “Combination of a) n-{5-[4-(4-methyl-piperazino-methyl)-benzoylamido]2-methylphenyl}-4- (3-pyridyl)-2-pyrimidine-amine and b) a histone deacetylase inhibitor for the treatment of leukemia” (priority 2002, published 2006).

Assays:
Type in all cases: cell-based, human
LAMA 84 cells [1] = test: Apoptosis by cytospin slides
Method: Experimental Format: Logarithmically growing cells are placed in sterile plastic T-flasks (Corning, Corning, N.Y.) to which are added the designated drugs and the flasks replaced in the incubator for intervals. At the end of the incubation period, cells are transferred to sterile centrifuge tubes, pelleted by centrifugation at 400×g for 10 min at room temperature, and prepared for analysis as described below.
(§1) Assessment of Apoptosis: After drug exposures, cytocentrifuge preparations are stained with Wright-Giemsa and viewed by light microscopy to evaluate the extent of apoptosis (i.e., cell shrinkage, nuclear condensation, formation of apoptotic bodies, etc.) as described previously (Yu et al., Nat. Rev. Cancer 1:294-202). For these studies, the percentage of apoptotic cells is determined by evaluating ≧500 cells/condition in triplicate. To confirm the results of morphological analysis, Annexin V/PI staining is used. Annexin V/PI (BD PharMingen, San Diego, Calif.) analysis of cell death is carried out as per the manufacturer's instructions. In studies involving TNF and TNF soluble receptor, both compound are combined and maintained at room temperature 20 min prior to use. For these experiments 1-2×10^5 cells per condition are harvested. Analysis is carried out using a Becton-Dickinson FACScan cytofluorometer (Mansfield, Mass.). To further confirm the morphology results, TUNEL staining is used. For TUNEL staining, cytocentrifuge preparations are obtained and fixed with 4% formaldehyde. The slides are treated with acetic acid/ethanol (1:2), stained with terminal transferase reaction mixture containing 1× terminal transferase reaction buffer (0.25 units/μl terminal transferase, 2.5 mM CoCl2, and 2 pmol fluorescein-12-dUTM; Boehringer Mannheim, Indianapolis, Ind.), and visualized using fluorescence microscopy.

LAMA 84 cells [2] = test: Annexin V/PI flow cytometry of cell death; details: 200 nM Compound I ± 1.0 μM SAHA for 24 hr
Method: as §1, with “For” for “Assessment of Apoptosis: After drug exposures, cytocentrifuge preparations are stained with Wright-Giemsa and viewed by light microscopy to evaluate the extent of apoptosis (i.e., cell shrinkage, nuclear condensation, formation of apoptotic bodies, etc.) as described previously (Yu et al., Nat. Rev. Cancer 1:294-202). For”

[3] = system: Compound I-resistant K562 cells (K562R); test: Apoptosis by Wright Giemsa-stained cytospin slides in resistant cells; details: Table 7, 24 hr, Compound I (1.0 or 1.25 μM), SAHA (1.0 or 2.0)
Method: as §1, with “For TUNEL staining, cytocentrifuge preparations are obtained and fixed with 4% formaldehyde.” left out

Structure (SMILES)	Compound I + SB % of apoptotic cells (LAMA 84 cells [1]; Table 6, LAMA 84, 24 hr, sodium butyrate (SB; 1 or 2 mM), Compound I concentration not given)	cell death (LAMA 84 cells [1]; sensitive LAMA 84, Compound I (1.0 or 1.25 μM) for 48 hr, data not shown)	% Annexin V/PI (LAMA 84 cells [2])	Compound I + SAHA % of apoptotic cells [3]
Cc1ccc(NC(=O)c2ccc(CN3CCN(C)CC3)cc2)cc1Nc1nccc(-c2cccnc2)n1 [Compound I, N-{5-[4-(4-methyl-piperazino-methyl)-benzoylamido]-2-methylphenyl}-4-(3-pyridyl)-2-pyrimidine-amine]	9.3 ± 3.8%	~100%		
O=C(CCCCCCC(=O)Nc1ccccc1)NO [SAHA, suberoylanilide hydroxamic acid]			15.2 ± 2.4%	6.8 ± 3.5%
